Experimental data as given in paper PMC4624771, “Oriented Cell Division in the C. elegans Embryo Is Coordinated by G-Protein Signaling Dependent on the Adhesion GPCR LAT-1” (PLoS Genetics, 2015).

Columns and labels:
[1] = target: rat latrophilin LPHN1 (ADGRL1) (rat) (UniProt O88917)
lat-1 mutants = experiment: Fertility rescue assay (brood size); assay type: in vivo, C. elegans; details: 80 μM forskolin, independently of time and duration of drug application
Description: Supplementary file pgen.1005624.s004.tif: S3 Fig A cAMP-mediated signal is involved in the role of LAT-1 in cleavage plane orientation but not in fertility. (A) Fertility defects of lat-1 mutants are not rescued by treatment of hermaphrodites from embryonic stages to adulthood with 80 μM forskolin. Brood size was scored compared to untreated (mock), DMSO-treated (0.8%) and wild-type control. Data are given as means ± SD, n.s. not significant. […] (TIF) Click here for additional data file.
Ten L4 hermaphrodites were allowed to lay eggs on separate NGM plates containing 80 µM forskolin or respective solvent and seeded with OP50. Plates were incubated at 22 °C. Every 24 hours hermaphrodites were transferred onto fresh plates until egg-laying ceased and embryos were scored. Experiments were conducted at least in triplicate. Data were examined with an unpaired two-tailed t test for each genotype and condition, means are presented with SD.

[2] = system: cAMP levels in C. elegans embryos and adults; experiment: In vivo cAMP measurement in C. elegans embryos and adults; details: cAMP accumulation assay after lysis
From the text: (§1) Fig 2 Division plane defects in lat-1 mutant embryos are rescued by elevation of intracellular cAMP via a Gs protein/adenylyl cyclase pathway. […] In wild-type embryos treated with the RNAi control vector L4440 ABal divides in an anterior-posterior direction (A) whereas in treated lat-1 mutants the division plane is almost perpendicular to MS (B). gsa-1 RNAi by feeding over two generations leads to a turning of the F2 ABal division plane in a direction similar to that in lat-1 mutants (C). F2 lat-1; gsa-1(RNAi) embryos show a similar ABal division plane to lat-1 mutants (D). (E) Cell division plane angles of ABal relative to MS after knockdown of gsa-1. […] The vector L4440 served as negative control. Data are shown as means ± SD. * p < 0.05; *** p < 0.001; n ≥ 11. (F) cAMP levels are reduced in lat-1 embryos compared to a control wild-type population. cAMP levels were measured after lysis (15 μg protein) by cAMP accumulation assay. Assays were performed in three independent experiments, data are given as means ± SD. ** p < 0.01. […] Mothers and subsequently offspring of wild-type and lat-1 individuals were incubated and individuals reaching adulthood were scored (n = 410). […] Data were calculated from pixel analyses utilizing DIC images and are shown as means ± SD, ** p < 0.01. […]

C. elegans embryos = experiment: Contact length ratio of ABala-MS to ABalp-MS in embryos; assay type: in vivo; details: n = 11
From the text: as §1

lat-1(ok1465) nematodes = experiment: Lethality rescue assay in lat-1 mutant nematodes; assay type: in vivo
From the text: Fig 2 Division plane defects in lat-1 mutant embryos are rescued by elevation of intracellular cAMP via a Gs protein/adenylyl cyclase pathway. […] In wild-type embryos treated with the RNAi control vector L4440 ABal divides in an anterior-posterior direction (A) whereas in treated lat-1 mutants the division plane is almost perpendicular to MS (B). gsa-1 RNAi by feeding over two generations leads to a turning of the F2 ABal division plane in a direction similar to that in lat-1 mutants (C). F2 lat-1; gsa-1(RNAi) embryos show a similar ABal division plane to lat-1 mutants (D). (E) Cell division plane angles of ABal relative to MS after knockdown of gsa-1. […] The vector L4440 served as negative control. Data are shown as means ± SD. * p < 0.05; *** p < 0.001; n ≥ 11. (F) cAMP levels are reduced in lat-1 embryos compared to a control wild-type population. cAMP levels were measured after lysis (15 μg protein) by cAMP accumulation assay. Assays were performed in three independent experiments, data are given as means ± SD. ** p < 0.01. (G) Rescue of developmental lethality in lat-1 nematodes treated with compounds promoting cAMP accumulation: forskolin (80 μM), IBMX (10 mM) and 8-Br-cAMP (0.25 mM). Mothers and subsequently offspring of wild-type and lat-1 individuals were incubated and individuals reaching adulthood were scored (n = 410). As controls, nematodes were incubated in solvent without drug (mock). Data are shown as means ± SD. * p < 0.05; ** p < 0.01; *** p < 0.001. (H) Forskolin increases cAMP levels in C. elegans embryos and adults. lat-1 mutants and subsequently embryos were incubated with 80 μM forskolin. […] As controls, nematodes were treated with 0.8% DMSO lacking forskolin (mock). Basal cAMP levels of mock control are: 0.70 ± 0.14 nM (wild-type embryos); 0.37 ± 0.19 nM (lat-1 embryos); 1.9 ± 0.7 nM (wild-type adults); 2.3 ± 0.8 nM (lat-1 adults). Assays were performed in three independent experiments, data are given as means ± SD. * p < 0.05; ** p < 0.01; *** p < 0.001. (I-L) Relative positions of ABala, ABalp, and MS in an AB^4 embryo. Schematic representation (top) and DIC microscopy (bottom), scale bars = 10 μm. In wild-type embryos (I) and embryos incubated in 80 μM forskolin for 120 minutes (K) ABal divides in an anterior-posterior direction with only ABalp forming an interface with MS. In lat-1 mutants the division plane is skewed resulting in ABala and ABalp contacting MS (J). lat-1 embryos treated with 80 μM forskolin for 120 minutes display wild-type division and cell interfaces (L). (M) Arrangement of blastomeres in the 12-cell stage embryo. […] The right-hand side is two views of the mean positions of the blastomeres. The spheres are enlarged to convey an impression of the contacts. Forskolin turns the ABal spindle in the mutant in a more anterior direction. (N) Cell division plane angles of ABal relative to MS of untreated wild-type/lat-1 controls and wild-type/lat-1 embryos after incubation of mothers and subsequently embryos for 48 hours in 80 μM forskolin. Upon forskolin treatment, mutant embryos display a wild-type division angle. As controls, nematodes were treated with 0.8% DMSO lacking forskolin (mock). Data are shown as average angles ± SD, *** p < 0.001; n ≥ 12. (O) Forskolin reduces the contact length of ABala to MS. Ratio of relative contact lengths of ABala to MS and ABalp to MS cells lat-1 embryos untreated (control, n = 10) and after incubation of mothers and subsequently embryos for 48 hours in 80 μM forskolin (n = 11). […] Data were calculated from pixel analyses utilizing DIC images and are shown as means ± SD, ** p < 0.01.
All compounds were obtained from Sigma Aldrich. Forskolin was dissolved in DMSO to 10 mM, 3-isobutyl-1-methylxanthine (IBMX) in Dent´s buffer to 10 mM, 8-bromoadenosine 3′,5′-cyclic monophosphate (8-Br-cAMP) in 1 N ammonium hydroxide to 250 mM and 2',5'-dideoxyadenosine (ddA) was diluted in DMSO to 100 mM prior to final dilution in Dent´s buffer. […]

lat-1 mutant embryos = experiment: Embryonic lethality after adenylyl cyclase inhibition, lat-1 mutants; assay type: in vivo, C. elegans; details: 1 mM ddA vs 1% DMSO mock; n > 520
Description: (§2) All compounds were obtained from Sigma Aldrich. Forskolin was dissolved in DMSO to 10 mM, 3-isobutyl-1-methylxanthine (IBMX) in Dent´s buffer to 10 mM, 8-bromoadenosine 3′,5′-cyclic monophosphate (8-Br-cAMP) in 1 N ammonium hydroxide to 250 mM and 2',5'-dideoxyadenosine (ddA) was diluted in DMSO to 100 mM prior to final dilution in Dent´s buffer. Peptides were synthesized (see Supporting Experimental Procedures) and dissolved in DMSO to 100 mM prior to final dilution in M9. Worms were incubated in 80 μM forskolin, 10 mM IBMX, 0.25 mM 8-Br-cAMP, 1 mM ddA or 0.1 mM peptide solution, respectively, containing E. coli OP50.
(§3) Supplementary file pgen.1005624.s005.tif: S4 Fig Inhibition of adenylyl cyclases in wild-type hermaphrodites partially mimics the lat-1 phenotype. […] Note that this effect might be not fully penetrant due potential difficulties in drug accessibility. As controls, nematodes were treated with 1% DMSO lacking ddA (mock). Individuals surviving embryogenesis were scored (n > 520). Data are given as means ± SD. n.s. not significant; *** p < 0.001. (TIF) Click here for additional data file.

wild-type embryos = experiment: Embryonic lethality after adenylyl cyclase inhibition, wild-type; assay type: in vivo, C. elegans; details: adult hermaphrodites and subsequently very early embryos, 1 mM ddA vs 1% DMSO mock; n > 520
Description: as §2, §3

[3] = target: T1, C. elegans latrophilin homolog LAT-1 (C. elegans) (UniProt G5EDW2)
T1 sequence: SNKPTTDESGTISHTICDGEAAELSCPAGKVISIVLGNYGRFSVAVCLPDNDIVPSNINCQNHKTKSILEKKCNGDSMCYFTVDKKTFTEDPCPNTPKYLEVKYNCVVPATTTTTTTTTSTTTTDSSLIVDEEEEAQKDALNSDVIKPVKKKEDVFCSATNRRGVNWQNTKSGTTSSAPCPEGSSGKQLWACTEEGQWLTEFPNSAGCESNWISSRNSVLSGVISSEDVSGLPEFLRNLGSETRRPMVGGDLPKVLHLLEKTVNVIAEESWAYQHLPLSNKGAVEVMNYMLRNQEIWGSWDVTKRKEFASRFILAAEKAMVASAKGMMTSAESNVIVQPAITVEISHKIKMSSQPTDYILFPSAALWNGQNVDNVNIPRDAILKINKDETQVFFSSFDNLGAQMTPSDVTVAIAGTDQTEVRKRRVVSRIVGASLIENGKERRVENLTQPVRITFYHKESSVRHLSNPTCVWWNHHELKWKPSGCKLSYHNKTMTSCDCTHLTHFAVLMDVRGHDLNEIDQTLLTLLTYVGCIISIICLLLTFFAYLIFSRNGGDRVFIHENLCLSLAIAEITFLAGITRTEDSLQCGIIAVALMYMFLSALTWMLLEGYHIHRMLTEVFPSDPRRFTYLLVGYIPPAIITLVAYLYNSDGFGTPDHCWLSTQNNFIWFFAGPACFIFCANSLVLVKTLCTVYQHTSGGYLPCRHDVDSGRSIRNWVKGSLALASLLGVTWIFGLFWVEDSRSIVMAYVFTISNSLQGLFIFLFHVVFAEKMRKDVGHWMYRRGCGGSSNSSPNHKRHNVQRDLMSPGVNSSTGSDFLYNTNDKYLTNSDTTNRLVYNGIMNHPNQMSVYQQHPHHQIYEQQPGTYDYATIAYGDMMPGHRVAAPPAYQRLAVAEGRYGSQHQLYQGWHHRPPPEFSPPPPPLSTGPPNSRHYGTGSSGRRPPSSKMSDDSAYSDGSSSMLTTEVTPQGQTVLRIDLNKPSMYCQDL

Sequence of UniProt O88917 (O88917 25-1515): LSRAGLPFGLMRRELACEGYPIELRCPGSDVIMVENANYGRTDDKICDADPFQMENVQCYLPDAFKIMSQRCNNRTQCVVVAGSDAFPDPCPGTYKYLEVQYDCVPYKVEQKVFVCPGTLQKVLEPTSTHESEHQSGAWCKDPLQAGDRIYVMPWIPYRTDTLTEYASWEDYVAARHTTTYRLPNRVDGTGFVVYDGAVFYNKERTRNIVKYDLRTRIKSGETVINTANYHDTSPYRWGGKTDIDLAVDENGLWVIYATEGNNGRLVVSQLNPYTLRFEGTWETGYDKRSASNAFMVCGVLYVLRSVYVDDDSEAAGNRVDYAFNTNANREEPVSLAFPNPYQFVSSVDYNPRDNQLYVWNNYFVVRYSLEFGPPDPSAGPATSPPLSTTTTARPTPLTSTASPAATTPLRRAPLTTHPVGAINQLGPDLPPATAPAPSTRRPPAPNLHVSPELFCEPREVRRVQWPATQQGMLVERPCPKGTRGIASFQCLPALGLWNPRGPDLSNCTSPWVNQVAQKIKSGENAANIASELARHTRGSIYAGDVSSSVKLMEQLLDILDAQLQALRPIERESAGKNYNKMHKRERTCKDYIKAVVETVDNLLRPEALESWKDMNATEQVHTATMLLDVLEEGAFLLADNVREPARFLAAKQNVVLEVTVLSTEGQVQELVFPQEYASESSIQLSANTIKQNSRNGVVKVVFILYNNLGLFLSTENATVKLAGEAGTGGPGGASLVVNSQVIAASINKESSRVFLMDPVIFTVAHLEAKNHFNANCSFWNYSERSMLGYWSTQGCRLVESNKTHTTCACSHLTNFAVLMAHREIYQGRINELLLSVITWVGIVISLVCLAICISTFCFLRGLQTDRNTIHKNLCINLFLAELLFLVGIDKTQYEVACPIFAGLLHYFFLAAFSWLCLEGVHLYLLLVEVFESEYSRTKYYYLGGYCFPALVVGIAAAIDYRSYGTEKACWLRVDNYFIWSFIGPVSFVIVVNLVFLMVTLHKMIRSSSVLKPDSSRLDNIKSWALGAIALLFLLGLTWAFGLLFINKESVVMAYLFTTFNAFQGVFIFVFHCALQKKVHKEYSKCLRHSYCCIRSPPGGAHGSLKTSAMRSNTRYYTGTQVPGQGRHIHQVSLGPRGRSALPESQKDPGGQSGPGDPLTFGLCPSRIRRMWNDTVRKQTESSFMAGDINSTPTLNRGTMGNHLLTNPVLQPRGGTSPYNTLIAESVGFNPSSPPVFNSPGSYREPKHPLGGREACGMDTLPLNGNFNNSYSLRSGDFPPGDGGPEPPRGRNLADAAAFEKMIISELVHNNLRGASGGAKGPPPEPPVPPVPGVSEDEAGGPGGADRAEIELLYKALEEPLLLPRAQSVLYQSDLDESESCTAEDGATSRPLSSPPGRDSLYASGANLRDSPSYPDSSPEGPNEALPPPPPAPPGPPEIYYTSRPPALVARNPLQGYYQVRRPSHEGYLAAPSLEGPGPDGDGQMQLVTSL

**Q.** With “RP13, peptide of 13 amino acids C-terminal of the rat LPHN1 GPS cleavage site” as the molecule, how does the cAMP accumulation (ALPHAScreen) in COS-7 cells transfected with rat LPHN1 and stimulated with 1 mM peptide, fold over basal [1] read?
**A.** 2.3 fold

**Q.** `C=C[C@@]1(C)CC(=O)[C@]2(O)[C@@]3(C)[C@@H](O)CCC(C)(C)[C@@H]3[C@H](O)[C@H](OC(C)=O)[C@@]2(C)O1` [forskolin] was tested. Which “rescue of reduced brood size of lat-1 mutants, in words” value (lat-1 mutants) did it give?
**A.** did not detect any rescue

**Q.** And the “cAMP levels in embryos, in words” value ([2]; lat-1 mutants and subsequently embryos incubated with 80 μM forskolin vs 0.8% DMSO mock)?
**A.** increase in cAMP levels

**Q.** And the “cAMP in hermaphrodites, in words” value ([2]; wild-type and lat-1 hermaphrodites (L4 stage), 80 μM forskolin 48 hours vs 0.8% DMSO mock)?
**A.** elevated cAMP

**Q.** And the “contact of ABala to MS in wild-type embryos, in words” value (C. elegans embryos; forskolin-treated wild-type embryos, 80 μM)?
**A.** does not contact MS

**Q.** And the “contact of ABala to MS in lat-1 embryos, in words” value (C. elegans embryos; lat-1 embryos, mothers and subsequently embryos 48 hours in 80 μM forskolin, untreated ratio 0.72 ± 0.03)?
**A.** strongly reduced

**Q.** And the “effect on embryonic lethality of lat-1 worms, in words” value (lat-1(ok1465) nematodes; L4 larvae and subsequently embryos incubated, forskolin 80 μM, IBMX 10 mM, 8-Br-cAMP 0.25 mM)?
**A.** amelioration of embryonic lethality

**Q.** What about the “time point of drug application needed for rescue of developmental lethality, in words” value (lat-1(ok1465) nematodes; lat-1 mutants, 80 μM forskolin) of the same molecule?
**A.** only when adding forskolin to the mother or the very early embryonic stages

**Q.** And the “survival rate (individuals reaching adulthood)” value (lat-1(ok1465) nematodes; lat-1 worms, mothers (L4) and subsequently offspring incubated in 80 μM forskolin, untreated 33%)?
**A.** 73%

**Q.** And the “effect of concentrations higher than 80 μM on C. elegans, in words” value (lat-1(ok1465) nematodes; various concentrations tested)?
**A.** higher concentrations were detrimental

**Q.** What about the “concentration with optimal effect” value (lat-1(ok1465) nematodes; various concentrations tested on C. elegans) of the same molecule?
**A.** 80 µM

**Q.** How did the “embryonic lethality in lat-1 mutant embryos, in words” value (lat-1 mutant embryos) turn out when `C[C@H]1O[C@@H](n2cnc3c(N)ncnc32)C[C@@H]1O` [ddA, 2',5'-dideoxyadenosine] was run?
**A.** not in lat-1 mutant embryos

**Q.** And the “embryonic lethality in wild-type, in words” value (wild-type embryos)?
**A.** specific embryonic lethality

**Q.** With THFAVLMDVRGH [CP12, peptide of 12 amino acids C-terminal of the LAT-1 GPS cleavage site] as the molecule, how does the cAMP accumulation (ALPHAScreen) in lat-1-transfected COS-7 cells stimulated with 1 mM peptide, fold over basal [3] read?
**A.** 1.6 fold
